Paper PMC9512702 (Nature Chemical Biology, 2022)
“And” between values parts separate entries of the source, which are not always exact repeats. Equal entries are not always repeated. Where a SMILES comes first, the peptide text is derived from it. [ ]: non-standard residue; d: D form. Cha = N[C@@H](CC1CCCCC1)C(=O)O; Aib = CC(C)(N)C(=O)O

Tests used:
[1] = molecular target: SARS-CoV-2 RBD binding to immobilized ACE2 (Severe acute respiratory syndrome coronavirus 2, UniProt P0DTC2); experiment: biochemical
SARS-CoV-2 RBD = SARS-CoV-2 RBD (Severe acute respiratory syndrome coronavirus 2, UniProt P0DTC2); experiment: biochemical; type: binding; details: KD (direct binding to RBD)
[2] = Cell viability (MTT) assay, Vero-E6; type: cell-based, monkey; details: monkey; Vero-E6 cells, MTT, 20 μM (highest concentration tested), 48 h
Protocol: (§1) The cell viability assay was performed by using the MTT (3-(4,5-dimethylthiazol-2-yl)-2,5-diphenyltetrazolium bromide) assay. […] The next day, 50 μl of media was removed from each well and 50 μl of the peptide was added in a dose-dependent manner. 10% DMSO (final concentration v/v) was used as a positive control for the induction of cytotoxicity. […] The plate was incubated for another 4 h in the humidified CO2 incubator, after which 100 μl of dissolving solution (10% SDS in 0.01 M HCl) was added to each well. The plate was then incubated in a CO2 incubator overnight. The next day, the plate was read for absorbance at 570 nm. The percentage viability of cells was recorded in comparison to the untreated cells.

[3] = Solubility measurement (peptide concentration in saturated solution); details: sodium-phosphate buffer, pH 7.4, aqueous buffer, thermodynamic from solid
Protocol: Approximately 2 mg of each peptide was added to 500 µl of buffer in 1.5-ml Eppendorf tubes. The tubes were shaken at 25 °C for 2 h on a 900 r.p.m. vortex shaker. The samples were centrifuged at 12,000 r.p.m. for 15 min to remove the precipitate and the supernatant was analyzed by ultraviolet–visible light (UV–vis) spectrometry.

Vero-E6 cells = experiment: Cell viability (MTT) assay, Vero-E6; type: cell-based, monkey; details: Vero-E6 cytotoxicity vs pseudovirus IC50
Protocol: as §1

Row | SMILES | IC50 [1] [nM] | Kd (SARS-CoV-2 RBD; re-analyzed) | viability at 48 h, 20 µM [2] [%] | solubility thermodynamic at 2 h [3] [µM] | Kd (SARS-CoV-2 RBD) [nM] | Selectivity index (50% cytotoxic concentration divided by IC50) (Vero-E6 cells)
1 | CC[C@H](C)[C@H](NC(=O)[C@H](CC(C)C)NC(=O)[C@H](CC(=O)O)NC(=O)[C@H](CO)NC(=O)[C@@H](NC(=O)[C@H](CCCNC(=N)N)NC(=O)[C@H](CCSC)NC(=O)[C@H](CO)NC(=O)[C@H](C)NC(=O)[C@H](CCC(=O)O)NC(=O)C(C)(C)NC(=O)[C@H](CC(=O)O)NC(=O)[C@@H](C)NC(=O)[C@H](CC(C)C)NC(=O)[C@H](CCC(=O)O)NC(=O)[C@H](CC(=O)O)NC(=O)[C@H](CC(C)C)NC(=O)[C@H](CC(C)C)NC(=O)[C@H](CCCNC(=N)N)NC(=O)[C@H](CCSC)NC(=O)[C@@H](NC(=O)[C@H](CCC(=O)O)NC(=O)[C@H](Cc1ccc(O)cc1)NC(=O)[C@@H](NC(=O)[C@H](CCCCN)NC(=O)[C@H](CCC(N)=O)NC(=O)[C@H](CC(C)C)NC(=O)[C@@H](NC(=O)[C@H](Cc1c[nH]c2ccccc12)NC(=O)[C@H](CCC(=O)O)NC(=O)[C@H](CCCCN)NC(=O)[C@@H](N)CC(=O)O)[C@@H](C)CC)[C@@H](C)CC)[C@@H](C)CC)C(C)C)C(=O)N[C@@H](Cc1ccc(O)cc1)C(=O)N[C@@H](CCC(=O)O)C(=O)N[C@@H](Cc1ccccc1)C(=O)N[C@@H](CCSC)C(=O)N[C@@H](CCCCN)C(=O)N[C@@H](CCCCN)C(N)=O [SIH-5] (H-DKEWILQKIYEIMRLLDEL[dA]D[Aib]EASMRVSDLIYEFMKK-NH2) | 125 to 250 | ~0.9 nM and 0.9 nM | > 75 | > 700 | – | –
2 | CC[C@H](C)[C@H](NC(=O)[C@H](CC(C)C)NC(=O)[C@H](CC(=O)O)NC(=O)[C@H](CO)NC(=O)[C@@H](NC(=O)[C@H](CCCNC(=N)N)NC(=O)[C@H](CCSC)NC(=O)[C@H](CO)NC(=O)[C@H](C)NC(=O)[C@H](CCC(=O)O)NC(=O)C(C)(C)NC(=O)[C@H](CC(=O)O)NC(=O)[C@@H](C)NC(=O)[C@H](CC(C)C)NC(=O)[C@H](CCC(=O)O)NC(=O)[C@H](CC(=O)O)NC(=O)[C@H](CC(C)C)NC(=O)[C@H](CC(C)C)NC(=O)[C@H](CCCNC(=N)N)NC(=O)[C@H](CCSC)NC(=O)[C@@H](NC(=O)[C@H](CCC(=O)O)NC(=O)[C@H](Cc1ccc(O)cc1)NC(=O)[C@@H](NC(=O)[C@H](CCCCN)NC(=O)[C@H](CCC(N)=O)NC(=O)[C@H](CC(C)C)NC(=O)[C@@H](NC(=O)[C@H](Cc1c[nH]c2ccccc12)NC(=O)[C@H](CCC(=O)O)NC(=O)[C@H](CCCCN)NC(=O)[C@@H](N)CC(=O)O)[C@@H](C)CC)[C@@H](C)CC)[C@@H](C)CC)C(C)C)C(=O)N[C@@H](Cc1ccc(O)cc1)C(=O)N[C@@H](CCC(=O)O)C(=O)N[C@@H](CC1CCCCC1)C(=O)N[C@@H](CCSC)C(=O)N[C@@H](CCCCN)C(=O)N[C@@H](CCCCN)C(N)=O [SIH-11] (H-DKEWILQKIYEIMRLLDEL[dA]D[Aib]EASMRVSDLIYE[Cha]MKK-NH2) | 125 to 250 | – | > 75 | – | 1.3 | > 50,000
